In patent EP3322687B1, “2-BENZYL-INDANONE COMPOUNDS AS ANTICANCER AGENT AND A PROCESS FOR PREPARATION THEREOF” (Council of Scientific and Industrial Research, priority 2015, dated 2017):

What was measured:
[1] = tested on: Ehrlich Ascites Carcinoma (EAC); assay type: in vivo, Swiss mice
Experimental: Ehrlich ascites carcinoma (EAC) cells were collected from the peritoneal cavity of the Swiss mice harbouring 8-10 days old ascitic tumor. 1x10^7 EAC cells were injected intraperitoneally in Swiss mice selected for the experiment on day 0. The next day, animals were randomized and divided into different groups. The treatment groups contained 7 animals each and control group contained 10 animals. The treatment group was treated with 20 mg/kg of Compound 2 intra-peritoneally from day 1-9. One more of the treatment group received 5-fluorouracil (20 mg/kg, i.p) and it served as positive control. The tumor bearing control group was similarly administered normal saline (0.2 ml, i.p.). On day 12, animals were sacrificed and ascitic fluid was collected from peritoneal cavity of each mouse for the evaluation of tumor growth. Percent tumor growth inhibition was calculated based on the total number of tumor cells present in the peritoneal cavity as on day 12 of the experiment using the following formula. Percent tumor growth inhibition = (Av.no.of cells in control group−Av.no.of cells in treated group)/(Av.no.of cells in control group) × 100 [formula]

[2] = In-vivo acute oral toxicity; parameters: species or system Swiss albino mice; conditions: for ALP / Albumin / Bilirubin / Body weight / Cholesterol / Creatinine / Haemoglobin / RBC / SGOT / SGPT / Serum Protein / Triglycerides / WBC: 7th day, Mean±SE, n=6
Experimental: In view of potent anti-cancer activity of compound 2 in in-vitro model, acute and sub-acute oral toxicity of the same was carried out in Swiss albino mice for its further development into drug product. Experiment was conducted in accordance with the Organization for Economic Cooperation and Development (OECD) test guideline No 423 (1987).
For the acute oral toxicity study, 30 mice (15 male and 15 female) were taken and divided into […] comprising 3 male and 3 female mice in each group weighing between 20-25 g. The animals were maintained at 22±5°C with humidity control and also on an automatic dark and light cycle of 12 hours. The animals were fed with the standard mice feed and provided ad libitum drinking water. Mice of group 1 (Group 1) were kept as control and animals of groups 2, 3, 4 and 5 (Groups II, III, IV & V) were kept as experimental. The animals were acclimatized for 7 days in the experimental environment prior to the actual experimentation. The test compound 2 was solubilized in dimethyl sulphoxide and then suspended in double distilled water (DDW) and was given at 5, 50, 300 and 1000mg/kg body weight to animals of groups 2, 3, 4 and 5 (Groups II, III, IV & V) respectively once orally. Control animals received only vehicle.
The animals were checked for mortality and any signs of ill health at hourly interval on the day of administration of drug and there after a daily general case side clinical examination was carried out including changes in skin, mucous membrane, eyes, occurrence of secretion and excretion and also responses like lachrymation, piloerection respiratory patterns etc. Also changes in gait, posture and response to handling were also recorded. In addition to observational study, body weights were recorded and blood and serum samples were collected from all the animals on 7th day of the experiment in acute oral toxicity. The samples were analysed for total RBC, WBC, differential leucocytes count, haemoglobin percentage and biochemical parameters like ALP, SGPT, SGOT, total cholesterol, triglycerides, creatinine, bilirubin, serum protein, tissue protein, malonaldehyde and reduced GSH activity. The animals were then sacrificed and were necropsed for any gross pathological changes. Weights of vital organs like liver, heart, kidney etc. were recorded. Table 7. Effect of compound 2 as a single acute oral dose at 5, 50, 300 and 1000 mg/kg on body weight, haematological and serum biochemical parameters in Swiss albino mice (Mean±SE; n=6; a, P<0.001 compared to control, 5, 50, 300, 1000 mg/kg)

In the case of `COc1cc(C2c3c(cc(OC)c(OC)c3OC)C(=O)C2Cc2ccc3c(c2)OCO3)cc(OC)c1OC` (stereo not drawn) [Compound 2, 2-(3",4"-methylenedioxybenzyl)-3-(3',4',5'-trimethoxyphenyl)-4,5,6-trimethoxy-indan-1-one], the “%Tumor Growth Inhibition” value ([1]; 20 mg/kg i/p day 1-9, Day 12) is reported as 67.64%, the “Av, Volume of ascitic fluid” value ([1]; 20 mg/kg i/p day 1-9, Day 12) is reported as 6.31 mL and the “Av. No. of tumor cells” value ([1]; 20 mg/kg i/p day 1-9, Day 12) is reported as 44.78 x 10^7. The “Av. Weight of ascitic fluid” value ([1]; 20 mg/kg i/p day 1-9, Day 12) was 6.02 g, the “% Tumor cell growth” value ([1]; 20 mg/kg i/p day 1-9, Day 12, control = 100) was 32.36% and the Mortality ([1]; 20 mg/kg i/p day 1-9, Day 12, dead/total animals) was 0/7. The “Body weight Day 1” value ([1]; 20 mg/kg i/p day 1-9, EAC-bearing female Swiss mice, Day 1) was 21.0 g, the “Body weight Day 5” value ([1]; 20 mg/kg i/p day 1-9, EAC-bearing female Swiss mice, Day 5) was 21.86 g and the “Body weight Day 9” value ([1]; 20 mg/kg i/p day 1-9, EAC-bearing female Swiss mice, Day 9) was 22.28 g. For the same molecule, the “Body weight Day 12” value ([1]; 20 mg/kg i/p day 1-9, EAC-bearing female Swiss mice, Day 12) was 22.66 g, the “better activity (in-vivo) over the parent compound 12” value ([1]; Ehrlich ascites carcinoma, 20mg/kg dose, relative to compound 12) was 48.72% and the “ALP change as compare to control groups” value ([2]; 1000 mg/kg body weight, single oral dose) was “significant changes”. For the same molecule, the differential leucocytes counts ([2]; single acute oral dose at 5, 50, 300 and 1000 mg/kg body weight, n=6, compared to control (Figure 2)) was “Non significant changes”, the “absolute and relative organ weight” value ([2]; single acute oral dose at 5, 50, 300 and 1000 mg/kg, n=6, compared to control (Figure 1)) was “Non significant changes” and the “observational changes, morbidity and mortality” value ([2]; single acute oral dose, up to the dose level of 1000 mg/kg body weight) was “No observational changes, morbidity and mortality”. For the same molecule, the ALP ([2]; single oral dose 5 mg/kg) was 167.3±16.5 U/L, the Albumin ([2]; single oral dose 5 mg/kg) was 3.63 ± 0.28 g/dL and the Bilirubin ([2]; single oral dose 5 mg/kg) was 0.14 ± 0.07 mg/dL. It also gave a Body weight ([2]; single oral dose 5 mg/kg) of 23.97±0.64 gm, a Cholesterol ([2]; single oral dose 5 mg/kg) of 104.0 ± 6.7 mg/dL and a Creatinine ([2]; single oral dose 5 mg/kg) of 0.56 ± 0.10 mg/dL. The Haemoglobin ([2]; single oral dose 5 mg/kg) was 13.55±0.60 gm/dL, the RBC ([2]; single oral dose 5 mg/kg) was 5.93±0.39 million/mm3 and the SGOT ([2]; single oral dose 5 mg/kg) was 12.24±1.18 U/L. For the same molecule, the SGPT ([2]; single oral dose 5 mg/kg) was 15.74±1.03 U/L, the “Serum Protein” value ([2]; single oral dose 5 mg/kg) was 1.07 ± 0.06 mg/mL and the Triglycerides ([2]; single oral dose 5 mg/kg) was 98.74 ± 3.11 mg/dL. For the same molecule, the WBC ([2]; single oral dose 5 mg/kg) was 7.95±0.64 1000*/mm3, the ALP ([2]; single oral dose 50 mg/kg) was 191.6±27.6 U/L and the Bilirubin ([2]; single oral dose 50 mg/kg) was 0.09 ± 0.01 mg/dL. It also gave a Body weight ([2]; single oral dose 50 mg/kg) of 24.29±0.95 gm, a Cholesterol ([2]; single oral dose 50 mg/kg) of 120.3 ± 10.4 mg/dL and a Creatinine ([2]; single oral dose 50 mg/kg) of 0.69 ± 0.08 mg/dL. The Haemoglobin ([2]; single oral dose 50 mg/kg) was 13.06±0.82 gm/dL, the RBC ([2]; single oral dose 50 mg/kg) was 5.83±0.17 million/mm3 and the SGOT ([2]; single oral dose 50 mg/kg) was 25.76±5.40 U/L. The SGPT ([2]; single oral dose 50 mg/kg) was 17.92±1.69 U/L, the “Serum Protein” value ([2]; single oral dose 50 mg/kg) was 1.13 ± 0.07 mg/mL and the Triglycerides ([2]; single oral dose 50 mg/kg) was 74.95 ± 5.79 mg/dL. For the same molecule, the WBC ([2]; single oral dose 50 mg/kg) was 7.99±0.55 1000*/mm3, the ALP ([2]; single oral dose 300 mg/kg) was 224.0±6.70 U/L and the Albumin ([2]; single oral dose 300 mg/kg) was 3.63 ± 0.28 g/dL. For the same molecule, the Body weight ([2]; single oral dose 300 mg/kg) was 23.83±0.42 gm, the Cholesterol ([2]; single oral dose 300 mg/kg) was 116.5 ± 15.6 mg/dL and the Creatinine ([2]; single oral dose 300 mg/kg) was 0.76 ± 0.03 mg/dL. The Haemoglobin ([2]; single oral dose 300 mg/kg) was 10.90±1.11 gm/dL, the RBC ([2]; single oral dose 300 mg/kg) was 6.03±0.11 million/mm3 and the SGOT ([2]; single oral dose 300 mg/kg) was 18.71±3.16 U/L. For the same molecule, the SGPT ([2]; single oral dose 300 mg/kg) was 18.20±1.41 U/L, the “Serum Protein” value ([2]; single oral dose 300 mg/kg) was 1.09 ± 0.06 mg/mL and the Triglycerides ([2]; single oral dose 300 mg/kg) was 104.94 ± 10.39 mg/dL. For the same molecule, the WBC ([2]; single oral dose 300 mg/kg) was 8.13±0.64 1000*/mm3, the ALP ([2]; single oral dose 1000 mg/kg) was 234.3±44.5 U/L and the Albumin ([2]; single oral dose 1000 mg/kg) was 3.26 ± 0.30 g/dL. It also gave a Bilirubin ([2]; single oral dose 1000 mg/kg) of 0.12 ± 0.04 mg/dL, a Body weight ([2]; single oral dose 1000 mg/kg) of 23.41±0.16 gm and a Creatinine ([2]; single oral dose 1000 mg/kg) of 0.76 ± 0.09 mg/dL. For the same molecule, the Haemoglobin ([2]; single oral dose 1000 mg/kg) was 12.29±0.53 gm/dL, the RBC ([2]; single oral dose 1000 mg/kg) was 6.10±0.27 million/mm3 and the SGOT ([2]; single oral dose 1000 mg/kg) was 35.49±6.57 U/L. The SGPT ([2]; single oral dose 1000 mg/kg) was 11.97±1.67 U/L, the “Serum Protein” value ([2]; single oral dose 1000 mg/kg) was 1.42 ± 0.16 mg/mL and the Triglycerides ([2]; single oral dose 1000 mg/kg) was 87.28 ± 4.39 mg/dL. For the same molecule, the WBC ([2]; single oral dose 1000 mg/kg) was 8.57±0.76 1000*/mm3, the “toxicity in in-vivo acute oral toxicity” value ([2]; up to 300mg/kg) was “no toxicity” and the tolerability ([2]; up to the dose level of 1000 mg/kg body weight as a single acute oral dose) was “well tolerated”.
